Source: patent publication US20060078594A1, “Iron complex” (Conopco, Inc., d/b/a UNILEVER, priority 2004, published 2006)

Experiment: Iron dialysability assay (in vitro dialysable iron from fortified dough)
Conditions: dough from whole-grain wheat flour fortified with 50 mg/kg iron; normalized to dough fortified with ferrous sulfate; means of 4-5 experiments; ** = significantly different from ferrous sulfate (p < 0.05)
Experimental: The crude mass was aliquoted and small lumps were formed (10 g±0.5 g) which were used for the iron dialysability assay.
All glassware and paddles were cleaned with 10% HNO3 (24 hours) and rinsed five times with Milli-Q® water. […] The resulting suspension was poured into a VanKel Vial and the blender beaker was rinsed twice with Milli-Q® water (20 mL) and the rinse water was added to the suspension. The stirring speed of the paddle was adjusted to 200 rpm at 37° C. […] The pH of the suspension was adjusted to 2.0 with 6N HCl and a Pepsin-HCl solution (5 mL) was added. […] A clean dialysis membrane (20 cm, Spectra/Por7, Molecular weight cut-off 8 kD) was filled with a determined amount of 0.1M NaCO3 solution and adjusted to a total volume of 25 mL with Milli-Q® water. The dialysis bag was placed in the Erlenmeyer flask containing aliquot (iii), and shaken at 37° C. at 100 beats/min for 30 minutes while the pH was being monitored. […] After that time, the contents of the dialysis bag were recovered for quantitative analysis of the iron content.
Total iron content of yeast and wheat flour was determined by inductively coupled plasma atomic emission spectrometry. […] The emission of the individual elements was measured at specific wavelengths and concentrations were quantified from standard solutions. […]

Q: Which Relative availability does the source give for `O=S(=O)([O-])[O-].[Fe+2]` [Iron sulphate] here?
A: 1.0
